The text below walks through data of article PMC10817512, “OSMAC-Based Discovery and Biosynthetic Gene Clusters Analysis of Secondary Metabolites from Marine-Derived Streptomyces globisporus SCSIO LCY30” (Marine Drugs, 2023).

In brackets after ≈: the same amount, converted by molar mass. Some results are limits rather than exact numbers.

Assay [1] relates to Staphylococcus aureus 1862. The experiment in a line: Antibacterial MIC, CLSI microdilution. The format is cell-based. The procedure:
(§1) An antibacterial activity test of compounds 1–3 was conducted according to a standard protocol provided by the Clinical and Laboratory Standards Institute (CLSI). Sixteen bacterial strains were used, including Staphylococcus aureus ATCC 29213, Staphylococcus aureus 16339, Staphylococcus aureus 1862, Staphylococcus aureus 3090, Staphylococcus aureus 991, Staphylococcus aureus 669, Staphylococcus aureus 745324, Staphylococcus aureus 16162, Staphylococcus aureus (cfr) GDE4P037P, Enterococcus faecalis ATCC 29212, Enterococcus faecalis 36950, Micrococcus luteus ML01, MRSA, Bacillus subtilis BS01, Enterococcus gallinarum 5F52C, and Enterococcus faecium 36711. Compounds 1–3 were dissolved in DMSO at a concentration of 3.2 mg/mL, and vancomycin and ampicilin were used as antibacterial control agents. […] All the assays were carried out in triplicate.
In general terms: Dilution methods test growth across graded concentrations, often in twofold steps.

Assay [2] has as its system Enterococcus faecium 36711. The experiment in a line: Antibacterial MIC, CLSI microdilution. The format is cell-based. How it is done:
as §1

Assay [3] deals with Staphylococcus aureus 3090. The experiment in a line: Antibacterial MIC, CLSI microdilution. The format is cell-based. The procedure: as §1
For assay [4], the system named is Staphylococcus aureus 669. The experiment in a line: Antibacterial MIC, CLSI microdilution. The class given is cell-based. The procedure: as §1
Assay [5] concerns Staphylococcus aureus ATCC 29213. The experiment in a line: Antibacterial MIC, CLSI microdilution. The class given is cell-based. How it is done: as §1
Assay [6] deals with Staphylococcus aureus 16339. The experiment in a line: Antibacterial MIC, CLSI microdilution. The class given is cell-based. The procedure: as §1
The test system of assay [7] is Enterococcus faecalis 36950. The experiment in a line: Antibacterial MIC, CLSI microdilution. The class given is cell-based. The procedure: as §1
The test system of another assay is Micrococcus luteus ML01. The experiment in a line: Antibacterial MIC, CLSI microdilution. The class given is cell-based. The procedure:
as §1

Assay [8] deals with Enterococcus gallinarum 5F52C. The assay can be described thus: Antibacterial MIC, CLSI microdilution. The class given is cell-based. The procedure:
as §1

For assay [9], the system named is Staphylococcus aureus 745324. The experiment in a line: Antibacterial MIC, CLSI microdilution. The format is cell-based. How it is done:
as §1

In a further assay the test system is Bacillus subtilis BS01. The experiment in a line: Antibacterial MIC, CLSI microdilution. The format is cell-based. How it is done: as §1
Assay [10] relates to Staphylococcus aureus (cfr) GDE4P037P. The experiment in a line: Antibacterial MIC, CLSI microdilution. The class given is cell-based. The procedure: as §1
Assay [11] has as its system Staphylococcus aureus 991. The experiment in a line: Antibacterial MIC, CLSI microdilution. The class given is cell-based. How it is done: as §1
Assay [12] concerns Enterococcus faecalis ATCC 29212. The experiment in a line: Antibacterial MIC, CLSI microdilution. The format is cell-based. The procedure:
as §1

For assay [13], the system named is Staphylococcus aureus 16162. The assay can be described thus: Antibacterial MIC, CLSI microdilution. The format is cell-based. How it is done: as §1
Assay [14] concerns Staphylococcus simulans AKA1. The assay can be described thus: Antibacterial MIC, CLSI microdilution. The format is cell-based.
The next assay relates to MRSA. The assay can be described thus: Antibacterial MIC, CLSI microdilution. The format is cell-based, Staphylococcus aureus. The procedure: as §1
Assay [15] concerns human umbilical vein endothelial cell line HUVEC. The assay can be described thus: Cell growth inhibitory (cytotoxic) activity assay. The format is cell-based. The source says: (§2) The cell growth inhibitory activities of compounds 1–3 against fourteen different human cell lines (human liver cell line LX-2; hepatocellular cancer line HEPG2; human intestinal epithelial cell line NCM460; colorectal cancer cell lines HCT116 and SW480; normal human breast cell line MCF-10A; breast cancer cell line MCF7; triple-negative breast cancer cell lines MDA-MB-231, MDA-MB-468, and Bt-549; human umbilical vein endothelial cell line; lung cancer cell line A549; cervical cancer cell line Hela; and cholangiocarcinoma cell line RBE) were tested according to the previously published methods. SPSS software version 22.0 was used to test the IC50 values. Cisplatin and adriamycin were used as positive control agents, and all the experiments were carried out in triplicate.

The subject of assay [16] is normal human breast cell line MCF-10A. The experiment in a line: Cell growth inhibitory (cytotoxic) activity assay. The format is cell-based. As to conditions: MCF-10A (normal human breast cell line).
Text: as §2

Assay [17] relates to human intestinal epithelial cell line NCM460. The assay can be described thus: Cell growth inhibitory (cytotoxic) activity assay. The class given is cell-based. As to conditions: NCM460 (normal intestinal epithelial cell line).
Text: as §2

In assay [18] the test system is human liver cell line LX-2. The experiment in a line: Cell growth inhibitory (cytotoxic) activity assay. The class given is cell-based. The following applies: LX-2 (human liver cell line).
Text: as §2

Assay [19] concerns colorectal cancer cell line SW480. The assay can be described thus: Cell growth inhibitory (cytotoxic) activity assay. The format is cell-based, human. The following applies: SW480 (colorectal cancer).
Text: as §2

The subject of assay [20] is lung cancer cell line A549. The assay can be described thus: Cell growth inhibitory (cytotoxic) activity assay. The format is cell-based, human.
Text: as §2

Assay [21] concerns triple-negative breast cancer cell line Bt-549. The experiment in a line: Cell growth inhibitory (cytotoxic) activity assay. The format is cell-based, human.
Text: as §2

Assay [22] relates to triple-negative breast cancer cell line MDA-MB-231. The assay can be described thus: Cell growth inhibitory (cytotoxic) activity assay. The class given is cell-based, human.
Text: as §2

For assay [23], the system named is cholangiocarcinoma cell line RBE. The experiment in a line: Cell growth inhibitory (cytotoxic) activity assay. The format is cell-based, human.
Text: as §2

Assay [24] has as its system hepatocellular cancer line HEPG2. The experiment in a line: Cell growth inhibitory (cytotoxic) activity assay. The class given is cell-based, human.
Text: as §2

Assay [25] relates to triple-negative breast cancer cell line MDA-MB-468. The assay can be described thus: Cell growth inhibitory (cytotoxic) activity assay. The format is cell-based, human.
Text: as §2

In assay [26] the test system is cervical cancer cell line Hela. The experiment in a line: Cell growth inhibitory (cytotoxic) activity assay. The format is cell-based, human.
Text: as §2

The subject of assay [27] is colorectal cancer cell line HCT116. The experiment in a line: Cell growth inhibitory (cytotoxic) activity assay. The class given is cell-based, human.
Text: as §2

In assay [28] the test system is breast cancer cell line MCF7. The experiment in a line: Cell growth inhibitory (cytotoxic) activity assay. The class given is cell-based, human. The source says:
SPSS software version 22.0 was used to test the IC50 values.

A further assay has as its system Bacillus subtilis. More on the design: method as in PMID 18396903. As to conditions: ref [35]; cited from earlier work.

Broadly, the MIC is the lowest concentration that inhibits growth of the organism. `CN[C@H](CC(C)C)C(=O)N[C@H]1C(=O)N[C@@H](CC(N)=O)C(=O)N[C@H]2C(=O)N[C@H]3C(=O)N[C@H](C(=O)N[C@H](C(=O)O)c4cc(O)cc(O)c4-c4cc3ccc4O)[C@H](O)c3ccc(c(Cl)c3)Oc3cc2cc(c3O[C@@H]2O[C@H](CO)[C@@H](O)[C@H](O)[C@H]2O[C@H]2C[C@](C)(N)[C@H](O)[C@H](C)O2)Oc2ccc(cc2Cl)[C@H]1O` [Vancomycin, reference compound]: the minimal inhibitory concentration (MIC) was 1 µg/mL (≈ 0.69 µM) in assay [1] (Staphylococcus aureus, 1862); greater than 64 µg/mL in [2] (Enterococcus faecium, 36711); 0.5 µg/mL (≈ 0.345 µM) in assay [3] (Staphylococcus aureus, 3090); 1 µg/mL (≈ 0.69 µM) in assay [4] (Staphylococcus aureus, 669); 1 µg/mL (≈ 0.69 µM) in assay [5] (Staphylococcus aureus, ATCC29213); 1 µg/mL (≈ 0.69 µM) in [6] (Staphylococcus aureus, 16339). In addition, the MIC in assay [7] (Enterococcus faecalis, 36950) was determined as 0.5 µg/mL (≈ 0.345 µM); with Micrococcus luteus ML01 (Micrococcus luteus, ML01), 0.13 µg/mL (≈ 0.0897 µM); in [8] (Enterococcus gallinarum, GALLINARUM), 4 µg/mL (≈ 2.76 µM); in assay [9] (Staphylococcus aureus, 745324), 1 µg/mL (≈ 0.69 µM); against Bacillus subtilis BS01 (Bacillus subtilis, BS01) it was 0.13 µg/mL (≈ 0.0897 µM); in assay [10] (Staphylococcus aureus), 1 µg/mL (≈ 0.69 µM). For the same molecule, the MIC in assay [11] (Staphylococcus aureus, 991) was found to be 0.5 µg/mL (≈ 0.345 µM); in assay [12] (Enterococcus faecalis, ATCC29212), 2 µg/mL (≈ 1.38 µM); in assay [13] (Staphylococcus aureus, 16162), 0.5 µg/mL (≈ 0.345 µM); in assay [14] (Staphylococcus simulans, AKA1) it was 0.5 µg/mL (≈ 0.345 µM); with MRSA (Staphylococcus aureus) it was 0.5 µg/mL (≈ 0.345 µM).
One may read the IC50 as the midpoint of a concentration-inhibition curve. A low value points to greater potency. Take mayamycin A [Mayamycin (1)]: the concentration for half-maximal inhibition (IC50) in assay [15] amounted to 1680 nM; in assay [16] it was 5980 nM; in [17], 2640 nM; in [18], 2310 nM; in [19] it was 1050 nM; in assay [20], 1650 nM. For the same molecule, the concentration for half-maximal inhibition (IC50) in assay [21] (Bt-549 (TNBC)) was found to be 1880 nM; in assay [22] (MDA-MB-231 (TNBC)), 600 nM; in assay [23] it was 1050 nM; in [24], 2120 nM; in assay [25] (MDA-MB-468 (TNBC)), 2220 nM; in [26], 910 nM. Moreover, the values for the IC50 in [27] and in assay [28] were 1080 nM and 2100 nM, respectively. The MIC in assay [1] (Staphylococcus aureus 1862, 37 °C, 16–18 h) is 16 µg/mL; in assay [2] (Enterococcus faecium 36711, 37 °C, 16–18 h) it was 16 µg/mL; in assay [3] (Staphylococcus aureus 3090, 37 °C, 16–18 h), 16 µg/mL; in assay [4] (Staphylococcus aureus 669, 37 °C, 16–18 h), 16 µg/mL; in [5] (Staphylococcus aureus ATCC 29213, 37 °C, 16–18 h) it was 16 µg/mL; in [6] (Staphylococcus aureus 16339, 37 °C, 16–18 h), 16 µg/mL. The minimal inhibitory concentration (MIC) in assay [7] (Enterococcus faecalis 36950, 37 °C, 16–18 h) worked out at 8 µg/mL; against Micrococcus luteus ML01 (Micrococcus luteus ML01, 37 °C, 16–18 h), 1 µg/mL; in assay [8] (Enterococcus gallinarum 5F52C, 37 °C, 16–18 h), 32 µg/mL; in [9] (Staphylococcus aureus 745324, 37 °C, 16–18 h) it was 16 µg/mL; against Bacillus subtilis BS01 (Bacillus subtilis BS01, 37 °C, 16–18 h), 8 µg/mL; in [10] (Staphylococcus aureus (cfr) GDE4P037P, 37 °C, 16–18 h), 8 µg/mL. Further, the MIC in [11] (Staphylococcus aureus 991, 37 °C, 16–18 h) stood at 16 µg/mL; in assay [12] (Enterococcus faecalis ATCC 29212, 37 °C, 16–18 h), 32 µg/mL; in assay [13] (Staphylococcus aureus 16162, 37 °C, 16–18 h), 16 µg/mL; in assay [14] (Staphylococcus simulans AKA1, 37 °C, 16–18 h), 32 µg/mL; against MRSA (37 °C, 16–18 h), 8 µg/mL. In addition, the selective index in assay [21] (Bt-549 versus normal breast cells) was 3.18; in assay [22] (MDA-MB-231 versus normal breast cells) it was 9.97; in assay [25] (MDA-MB-468 versus normal breast cells) it was 2.69.
For the molecule streptophenazine H, the MIC with Bacillus subtilis is given as 15.6 µg/mL.
